Measurements taken from US6355665B1, “1H-4(5)-substituted imidazole derivatives, their preparation and their use as histamine H3 receptor ligands” (James Black Foundation Limited, priority 1997, dated 2002).

What was measured:
Histamine H3 receptor [1] = target: T1, Histamine H3 receptor (Cavia porcellus, UniProt Q9JI35); assay: Histamine H3 radioligand binding assay, guinea pig ileum ([3H]-R-α-methylhistamine); set-up: The cortex was dissected, weighed and homogenised in ice-cold 20 mM Hepes-NaOH buffer; from tissue; host or cells: guinea pig cerebral cortex membranes; conditions: guinea pig ileum longitudinal muscle myenteric plexus membranes; [3H]-R-α-methylhistamine 3 nM; typical variance ±0.12 log units; read-out: pKI (binding assay) - ileum (converted)
Procedure: Histamine H3 Radioligand Binding Assay—Guinea Pig Ileum
Male Dunkin Hartley guinea pigs (200-300 g) were used. The small intestine was rapidly removed (cut ^˜5 cm from caecum and 5 cm from stomach) and placed in ice-cold 20 mM Hepes-NaOH buffer (pH7.4 at 21±3° C.). The tissue was cut into ^˜10 cm segments, flushed through with ice-cold 20 mM Hepes-NaOH buffer and placed in a beaker containing fresh buffer at 4° C. 10 cm segments of ileum were threaded onto a glass pipette and the longitudinal muscle myenteric plexus was peeled away from the circular muscle using damp cotton-wool. Longitudinal muscle myenteric plexus was immediately placed in ice-cold Viaspan® solution (^˜100 ml for tissue from 3 guinea pigs) and placed in the refrigerator for 24 hours.
Pre-soaked tissue was weighed and minced with scissors. The tissue was then homogenised in Viaspan® using a polytron (Kinematica AG; PT-DA 3020/2TS, 3×^˜1-2 s). 50 ml of 500 mM Tris HCl (pH6.9 at 21±3° C.) was added to the tissue and the mixture centrifuged at 39,800×g for 12 min at 4° C. The supernatant was discarded and rehomogenised in 100 ml ice-cold 20 mM Hepes-NaOH buffer (pH7.4 at 21±3° C.) using a teflon-in-glass homogeniser (setting 10; 3×). The homogenate was recentrifuged at 39,800×g and the pellet resuspended in 20 mM Hepes-NaOH buffer (pH7.4 at 21±3° C.), to a tissue concentration of 50 mg.ml^−1, using a polytron (Brinkman, PT10, 3×^˜1 s).
Guinea pig ileum longitudinal muscle myenteric plexus membranes (400 μl) were incubated for 165 min at 21±3° C. in a final volume of 500 μl with 20 mM Hepes-NaOH buffer containing [^3H]-R-α-methylhistamine (50 μl; 3 nM) and competing compound. Total and non-specific binding of [^3H]-R-α-methylhistamine were defined using 50 μl of buffer and 50 μl of 10 μM thioperamide, respectively. The assay was terminated by rapid filtration through Whatman GF/B filters, presoaked (2 hr) in 0.1% polyethyleneimine, using a Brandell Cell Harvester. The filters were washed (3×3 ml) with ice-cold 50 mM Tris-HCl (pH6.9 at 21±3° C.), transferred into scintillation vials, 5 ml liquid scintillation cocktail was added and after 4 hours the bound radioactivity was determined by counting (4 min) in a Beckman liquid scintillation counter.
Data are analysed using GraphPad prism and the general equation for a competition curve with variable Hill slope (nH). [formula]
X is the log concentration of competing compound,
Y is the binding obtained at each concentration of X,
pIC50 is the […] required to compete for half of the specific binding.
The IC50 is converted to the K1 using the Cheng Prusoff equation,
IC50 is the concentration of competitor required to compete for half the specific binding,
L is the radioligand concentration used,
KD is the equilibrium dissociation constant for the radioligand determined by saturation experiments.
Typical variance in this assay is ±0.12 log units.

Histamine H3 receptor [2] = target: T1, Histamine H3 receptor; assay: Histamine H3 radioligand binding assay, guinea pig cortex ([3H]-R-α-methylhistamine); set-up: The cortex was dissected, weighed and homogenised in ice-cold 20 mM Hepes-NaOH buffer; from tissue; host or cells: guinea pig cerebral cortex membranes; conditions: guinea pig cortex membranes; [3H]-R-α-methylhistamine 0.1 nM; typical variance ±0.12 log units; read-out: pKI (binding assay) - cortex (converted)
Procedure: Histamine H3 Radioligand Binding Assay—Guinea Pig Cortex
Male Dunkin Hartley guinea pigs (200-300 g) were used. The whole brain was removed and immediately placed in ice-cold 20 mM Hepes-NaOH buffer (pH7.4 at 21±3° C.). The cortex was dissected, weighed and homogenised in ice-cold 20 mM Hepes-NaOH buffer (pH7.4 at 21±3° C.) (50 ml/guinea-pig cortex) using a polytron (Kinematica AG; PT-DA 3020/2TS, 3×3 s). The homogenate was centrifuged at 100×g for 5 min and the supernatants pooled and stored at 4° C. The pellets were rehomogenised in fresh ice-cold buffer (80 ml) and recentrifuged (100×g for 5 min). The supernatants were pooled and pellets rehomogenised and recentrifuged (100×g for 5 min). All supernatants were pooled and centrifuged at 39,800×g for 12 min at 4° C. The final pellet was resuspended in 20 mM Hepes-NaOH buffer (pH7.4 at 21±3° C.) to a tissue concentration of 7.5 mg.ml^−1, using a teflon-in-glass homogeniser.
Incubation Conditions and Data Analysis
These were essentially identical to those used for the guinea pig ileum myenteric plexus assay described above, except that the final assay concentration of [^3H]-R-α-methylhistamine was 0.1 nM. Typical variance in this assay is ±0.12 log units.

Histamine H3 receptor [3] = target: T1, Histamine H3 receptor; assay: ileal longitudinal muscle, myenteric plexus functional assay (rightward shift of R-(α)-methylhistamine E/[A] curves, Schild); format: cell-based; set-up: the longitudinal muscle layer and adhering myenteric plexus was teased away; from tissue; host or cells: guinea pig ileal longitudinal muscle with myenteric plexus (organ bath); conditions: guinea pig ileum longitudinal muscle myenteric plexus, electrically stimulated; antagonism of R-(α)-methylhistamine; typical variance ±0.15 log units; read-out: pKB (functional assay) - ileum (converted)
Procedure: The biological activity of the compounds of the examples was measured using the ileal longitudinal muscle, myenteric plexus assay described by Paton and Aboo Zar (J. Physiol. 1968, 194, 13-33). Male Dunkin-Hartley guinea pigs (250-300 g) were employed. Briefly, a 50 cm portion of ileum proximal to the caecum was removed, after discarding the terminal 20 cm. Ileal segments (3 cm) were cleaned by passing Krebs-Henseleit buffer containing 3 μM mepyramine gently through the ileum using a Pasteur pipette (size: 13.8 cm length, 0.65 cm diameter). To avoid unnecessary damage to the tissue, Krebs-Henseleit buffer was passed through the ileal segment, while it was lying horizontally on a petri dish. Therefore, the ileum was not over-distended and the buffer flowed through with ease. Each segment was then passed over a Pasteur pipette and the longitudinal muscle layer and adhering myenteric plexus was teased away using moist cotton wool, by stroking tangentially away from the mesenteric attachment. The tissues were suspended in 20 ml organ baths containing Krebs-Henseleit buffer at 37±1° C. and gassed with 95% CO2/5% O2. The tissues were ligated to two parallel stainless steel wires, situated between two platinum electrodes (0.76 cm length, 0.06 cm diameter). All measurements were recorded isometrically (Grass FTO3 transducer). Following an initial loading tension of 1 g, the tissues were stimulated with electrical pulses at a frequency of 0.1 Hz and a pulse duration of 0.5 msec, as described by Kosterlitz & Watt (Br. J. Pharmacol. 1968, 266-276). Initially, the tissues were stimulated at supramaximal (1.3 fold times maximal) voltage for a period of 30 min and then the tissues were washed and re-stimulated. A “sighter dose” of the selective histamine H3-receptor agonist, R-(α)-methylhistamine (0.3 μM) (Arrang et al. Nature, 1987, 117-123), was administered. Upon generation of response, the “sighter dose” was removed from the tissues by “washout” (6 washes over 60 min) and during this period the electrical stimulation was switched off. The tissues were then re-stimulated and allowed to stabilise prior to the addition of drug treatments, which were allocated on a randomised block basis to the organ baths. Following the incubation period, a single cumulative E/[A] curve was obtained. The experimental E/[A] curve data was expressed as the percentage inhibition of the peak height of electrically-stimulated contraction. Antagonist affinity values were calculated from the degree of rightward shift of the R-(α)-methylhistamine E/[A] curves using Schild's methods (Arunlakshana & Schild Br. J. Pharmacol. 1959, 48-58). Typical variance in this assay is ±0.15 log units.

T1 sequence (Q9JI35 whole entry): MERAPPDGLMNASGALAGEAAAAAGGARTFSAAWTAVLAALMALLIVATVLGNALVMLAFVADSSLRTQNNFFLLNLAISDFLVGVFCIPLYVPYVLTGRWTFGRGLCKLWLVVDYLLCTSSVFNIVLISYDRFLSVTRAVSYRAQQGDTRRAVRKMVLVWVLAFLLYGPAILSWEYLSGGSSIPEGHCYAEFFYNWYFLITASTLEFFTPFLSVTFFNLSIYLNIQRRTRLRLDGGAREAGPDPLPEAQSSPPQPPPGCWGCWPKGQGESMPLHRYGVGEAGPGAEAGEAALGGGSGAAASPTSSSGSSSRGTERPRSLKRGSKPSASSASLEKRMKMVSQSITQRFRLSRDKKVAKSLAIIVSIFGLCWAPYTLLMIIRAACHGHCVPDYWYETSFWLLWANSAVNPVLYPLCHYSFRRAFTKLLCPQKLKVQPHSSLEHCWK

SMILES | Ki (Histamine H3 receptor [1]) | Ki (Histamine H3 receptor [2]) | Kb (Histamine H3 receptor [3])
O=S(=O)(CCCCc1c[nH]cn1)NCc1ccc(Cl)cc1 [Example 1, N-(4-Chlorobenzyl)-4-(1H-imidazol-4-yl)-1-butanesulfonamide] | 8.51 nM | 2.63 nM | 8.71 nM
O=S(=O)(/C=C/CCc1c[nH]cn1)NCc1ccc(Cl)cc1 [Example 3, (E)-N-(4-Chlorobenzyl)-4-(1H-imidazol-4-yl)-1-but-1-enesulfonamide] | 10.2 nM | 2.75 nM | 12.6 nM
O=S(=O)(CCCCCc1c[nH]cn1)NCc1ccc(Cl)cc1 [Example 5, N-(4-Chlorobenzyl)-5-(1H-imidazol-4-yl)-1-pentanesulfonamide] | 1.86 nM | 2.63 nM | 3.47 nM
O=S(=O)(CC(O)CCCc1c[nH]cn1)NCc1ccc(Cl)cc1 (centres unmarked) [Example 6, N-(4-Chlorobenzyl)-2-hydroxy-5-(1H-imidazol-4-yl)-1-pentanesulfonamide] | 12.6 nM | 5.01 nM | 16.2 nM
O=S(=O)(CCCCCc1c[nH]cn1)Cc1ccc(Cl)cc1 [Example 27, [5-(1H-Imidazol-4-yl)pentyl] 4-chlorobenzyl sulfone] | 11.7 nM | 0.661 nM | 14.1 nM

The remaining lines, values ahead:

Ki (Histamine H3 receptor [1]) | Ki (Histamine H3 receptor [2]) | Kb (Histamine H3 receptor [3]) | SMILES
60.3 nM | 14.1 nM | 49 nM | O=S(=O)(CC(O)CCCc1c[nH]cn1)NCCc1ccc(Cl)cc1 (centres unmarked) [Example 12, N-(4-Chlorophenethyl)-2-hydroxy-5-(1H-imidazol-4-yl)-1-pentanesulfonamide]
10.2 nM | 4.47 nM | 7.76 nM | O=S(=O)(CCCCCc1c[nH]cn1)CCc1ccc(Cl)cc1 [Example 26, [5-(1H-Imidazol-4-yl)pentyl] 4-chlorophenethyl sulfone]
– | 1.32 nM | 12.3 nM | NCC(CCCc1c[nH]cn1)CS(=O)(=O)NCc1ccc(Cl)cc1 (centres unmarked) [Example 38, 2-Aminomethyl-N-(4-chlorobenzyl)-5-(1H-imidazol-4-yl)-1-pentanesulfonamide]
– | 2.95 nM | 24.5 nM | CNC(CCCc1c[nH]cn1)CS(=O)(=O)NCc1ccc(Cl)cc1 (centres unmarked) [Example 39, N-(4-Chlorobenzyl)-2-methylamino-5-(1H-imidazol-4-yl)-1-pentanesulfonamide]
– | 1580 nM | 2630 nM | O=S(=O)(/C=C/C=C/c1c[nH]cn1)NCc1ccc(Cl)cc1 [Example 41, (E,E)-N-(4-Chlorobenzyl)-4-(1H-imidazol-4-yl)-1-but-1,3-dienesulfonamide]
– | 1230 nM | 2090 nM | O=S1(=O)C2C=CC(c3c[nH]cn3)CC2CN1Cc1ccc(Cl)cc1 (centres unmarked) [Example 42, 2-(4-Chlorohenzyl)-5-(1H-imidazol-4-yl)-2,3,3a, 4,5,7a-hexahydro-benzo[d]isothiazole 1,1-dioxide]
